Each structure is given as a SMILES string. Values after ≈ are worked out from the molar mass of the structure shown. Active and inactive are the calls of the source. No cut-off for these calls is given here.

In one assay the test system is Lipaphis erysimi. Put plainly: Insecticidal activity against Lipaphis erysimi Kaltenbach. It counts as functional.
The next assay deals with U2OS. Put plainly: Cytotoxicity against human U2OS cells after 36 hrs by MTT assay. It counts as functional, cell-based.
For another assay, the system named is MCF7. The assay is described as follows: Cytotoxicity against human MCF7 cells after 36 hrs by MTT assay. It counts as functional, cell-based. To be noted: MCF7, 36 h.
Another assay relates to P388. Put plainly: Cytotoxicity against mouse P388 cells. To be noted: read-out: ED50 (the source's name). The class given is functional.

On to `CC[C@H](CC[C@](C)(O)[C@H]1[C@@H](O)C[C@H]2[C@@H]3[C@H](O)C=C4C[C@@H](O)CC[C@]4(C)[C@H]3CC[C@@]21C)C(C)C`, for which the outcome with Lipaphis erysimi was inactive. Besides, the results for the IC50 in the assay with U2OS and in the assay on MCF7 were 23.2 µg/mL (≈ 50.1 µM) and above 50 µg/mL, respectively.

As for `C=C(C)C(CC[C@@H](C)[C@@H]1[C@@H](O)C[C@]2(C)C3=CC[C@H]4C(C)(C)CCC[C@]4(C)[C@H]3CC[C@@]12C)OO` (mixture of isomers) [MELIASENIN K], in the assay on Lipaphis erysimi, the result was inactive. The IC50 (in general, the point on the concentration scale where inhibition reaches its midpoint) was 7.2 µg/mL with U2OS and 2.4 µg/mL in the assay on MCF7.

As for `C=C(C)C(CC[C@@H](C)[C@@H]1[C@@H](O)C[C@]2(C)C3=CC[C@H]4C(C)(C)C(=O)CC[C@]4(C)[C@H]3CC[C@@]12C)OO` (mixture of isomers) [MELIASENIN L], in the assay with Lipaphis erysimi, the result was inactive. For the same molecule, the figures for the IC50 in the assay with U2OS and with MCF7 were 9.5 µg/mL and 9.8 µg/mL, respectively.

Turning to `C[C@H](C/C=C/C(C)(C)OO)[C@@H]1[C@@H](O)C[C@]2(C)C3=CC[C@H]4C(C)(C)[C@@H](O)CC[C@]4(C)[C@H]3CC[C@@]12C` (relative stereo) [MELIASENIN I], the outcome in the assay with Lipaphis erysimi was inactive. The IC50 in the assay on U2OS came to 9.5 µg/mL (≈ 20 µM); with MCF7, 11.2 µg/mL (≈ 23.6 µM).

Turning to `C[C@H](C/C=C/C(C)(C)OO)[C@@H]1[C@@H](O)C[C@]2(C)C3=CC[C@H]4C(C)(C)C(=O)CC[C@]4(C)[C@H]3CC[C@@]12C` (relative stereo) [MELIASENIN J], the result with Lipaphis erysimi was inactive. For the same molecule, the IC50 stood at 14.3 µg/mL (≈ 30.3 µM) in the assay with U2OS and 1.1 µg/mL (≈ 2.33 µM) with MCF7.

With `CC(C)C(C)CC[C@](C)(O)[C@H]1[C@@H](O)C[C@H]2[C@@H]3[C@H](O)C=C4C[C@@H](O)CC[C@]4(C)[C@H]3CC[C@@]21C` (single isomer, unassigned), the result with Lipaphis erysimi was inactive. For the same molecule, the values for the IC50 in the assay with U2OS and with MCF7 were 9.4 µg/mL (≈ 20.9 µM) and 47.4 µg/mL (≈ 106 µM), respectively.

In the case of `O=c1[nH]cc(F)c(=O)[nH]1` [FLUOROURACIL], the values for the IC50 with U2OS and in the assay with MCF7 were 7.2 µg/mL (≈ 55.4 µM) and 34 µg/mL (≈ 261 µM), respectively.

Take `CC(C)=CCC[C@@H](C)[C@@H]1[C@@H](O)C[C@]2(C)C3=CC[C@H]4C(C)(C)C(=O)CC[C@]4(C)[C@H]3CC[C@@]12C` [KULINONE]: the outcome in the assay on Lipaphis erysimi was inactive. Besides, the IC50 in the assay on U2OS amounted to 6.9 µg/mL (≈ 15.7 µM); with MCF7, 42.5 µg/mL (≈ 96.4 µM). For the same molecule, the EC50 with P388 was determined as 1.7 µg/mL (≈ 3.86 µM).

For `CC(C)(/C=C/C[C@H]1C(=O)O[C@H]2C[C@]3(C)C4=CC[C@H]5C(C)(C)C(=O)CC[C@]5(C)[C@H]4CC[C@@]3(C)[C@@H]21)OO` [MELIASENIN M], the result in the assay on Lipaphis erysimi was inactive. The IC50 in the assay with U2OS turned out to be 29.2 µg/mL (≈ 60.2 µM); in the assay with MCF7, 16.4 µg/mL (≈ 33.8 µM).

On to `C=C(C)[C@H](CC[C@H]1C(=O)O[C@H]2C[C@]3(C)C4=CC[C@H]5C(C)(C)C(=O)CC[C@]5(C)[C@H]4CC[C@@]3(C)[C@@H]21)OO` [MELIASENIN N], for which the outcome in the assay with Lipaphis erysimi was inactive. Also, the concentration for half-maximal inhibition (IC50) with U2OS worked out at 8.8 µg/mL (≈ 18.2 µM); in the assay with MCF7, 3 µg/mL (≈ 6.19 µM).

Consider `C=C(C)[C@@H](CC[C@H]1C(=O)O[C@H]2C[C@]3(C)C4=CC[C@H]5C(C)(C)C(=O)CC[C@]5(C)[C@H]4CC[C@@]3(C)[C@@H]21)OO` [MELIASENIN O], for which the outcome in the assay with Lipaphis erysimi was inactive. Besides, the IC50 with U2OS stood at 23.9 µg/mL (≈ 49.3 µM); with MCF7, 2.3 µg/mL (≈ 4.75 µM).

As for `CO[C@H]1O[C@@H]([C@@H]2OC2(C)C)C[C@H]1[C@@H]1CC[C@]2(C)C3=CC[C@H]4C(C)(C)[C@@H](O)CC[C@]4(C)[C@H]3CC[C@@]12C` [MELIASENIN P], the result in the assay with Lipaphis erysimi was inactive. Moreover, the IC50 with U2OS was 48.7 µg/mL (≈ 100 µM); in the assay with MCF7, 6.4 µg/mL (≈ 13.1 µM).

As for `CCCCCCCCCCCCCCCC(=O)O[C@H]1CC[C@]2(C)[C@H]3CC[C@@]4(C)[C@H]([C@@H]5C[C@H]([C@H](O)C(C)(C)O)O[C@@H]5OC)CC[C@]4(C)C3=CC[C@H]2C1(C)C` [MELIASENIN Q], the result in the assay with Lipaphis erysimi was inactive. The half-inhibitory concentration (IC50) was 3.9 µg/mL (≈ 5.25 µM) in the assay on U2OS and above 50 µg/mL in the assay with MCF7.

As for `COC(=O)[C@H](C/C=C/C(C)(C)OO)[C@@H]1[C@@H](O)C[C@]2(C)C3=CC[C@H]4C(C)(C)C(=O)CC[C@]4(C)[C@H]3CC[C@@]12C` [MELIASTATIN 3], the outcome in the assay on Lipaphis erysimi was inactive. Further, the values for the IC50 in the assay with U2OS and in the assay on MCF7 were 31.1 µg/mL (≈ 60.2 µM) and 48.6 µg/mL (≈ 94.1 µM), respectively. Besides, the EC50 in the assay on P388 is 1.7 µg/mL (≈ 3.29 µM).

Consider `C=C(C)C(O)CC[C@@H](C)[C@@H]1[C@@H](O)C[C@]2(C)C3=CC[C@H]4C(C)(C)C(=O)CC[C@]4(C)[C@H]3CC[C@@]12C` (stereo partly specified) [MELIASTATIN 5], for which the result with Lipaphis erysimi was inactive. Also, the IC50 in the assay on U2OS was 9.5 µg/mL (≈ 20.8 µM); with MCF7, 16 µg/mL (≈ 35 µM). Moreover, in the assay on P388, the EC50 stood at 1.7 µg/mL (≈ 3.72 µM).

Consider `COC(=O)[C@H](CCC=C(C)C)[C@@H]1[C@@H](O)C[C@]2(C)C3=CC[C@H]4C(C)(C)C(=O)CC[C@]4(C)[C@H]3CC[C@@]12C` [METHYL KULONATE], for which the outcome with Lipaphis erysimi was inactive. Further, the results for the 50% inhibitory concentration (IC50) with U2OS and in the assay on MCF7 were 14.6 µg/mL (≈ 30.1 µM) and 0.41 µg/mL (≈ 0.846 µM), respectively. In the assay with P388, the EC50 amounted to 1.7 µg/mL (≈ 3.51 µM).

These data come from ChEMBL document CHEMBL1641393, “Triterpenoids and steroids from the fruits of Melia toosendan and their cytotoxic effects on two human cancer cell lines” (J Nat Prod, 2010).
